From publication PMC5218480 (PLoS ONE, 2017)

System: MV-4-11 cells
Assay: Gene expression microarray analysis (Affymetrix PrimeView) and GSEA
Format: cell-based, human
Parameters: RFU PODN (11730768_x_at) / Fold change /veh PODN (11730768_x_at) / RFU LINC00158 (11744669_a_at) / Fold change /veh LINC00158 (11744669_a_at) / RFU DUSP10 (11751237_a_at) / Fold change /veh DUSP10 (11751237_a_at) / RFU ID3 (11757404_x_at) / Fold change /veh ID3 (11757404_x_at) / RFU PLEKHG5 (11737974_s_at) / Fold change /veh PLEKHG5 (11737974_s_at) / RFU LRRC4B (11730491_at) / Fold change /veh LRRC4B (11730491_at) / RFU GIMAP4 (11747438_a_at) / Fold change /veh GIMAP4 (11747438_a_at) / RFU KRT8 (11758183_x_at) / Fold change /veh KRT8 (11758183_x_at) / RFU CNN1 (11734310_a_at) / Fold change /veh CNN1 (11734310_a_at) / RFU VPS37D (11726825_at) / Fold change /veh VPS37D (11726825_at) / RFU C10orf10 (11716522_x_at) / Fold change /veh C10orf10 (11716522_x_at) / RFU KIR2DL2 /// KIR2DL4 /// KIR2DL5A /// KIR2DL5B /// KIR2DS1 /// KIR2DS2 /// KIR2DS3 /// KIR2DS4 /// KIR3DL3 /// KIR3DL3 /// KIR3DS1 (11738374_at) / Fold change /veh KIR2DL2 /// KIR2DL4 /// KIR2DL5A /// KIR2DL5B /// KIR2DS1 /// KIR2DS2 /// KIR2DS3 /// KIR2DS4 /// KIR3DL3 /// KIR3DL3 /// KIR3DS1 (11738374_at) / RFU C1QL1 (11718748_at) / Fold change /veh C1QL1 (11718748_at) / RFU TMPRSS4 (11747572_a_at) / Fold change /veh TMPRSS4 (11747572_a_at) / RFU HAMP (11756126_x_at) / Fold change /veh HAMP (11756126_x_at) / RFU RNFT2 (11725882_a_at) / Fold change /veh RNFT2 (11725882_a_at) / RFU NR4A2 (11747474_a_at) / Fold change /veh NR4A2 (11747474_a_at) / RFU ABCC12 (11746883_a_at) / Fold change /veh ABCC12 (11746883_a_at) / RFU TMEM136 (11760407_x_at) / Fold change /veh TMEM136 (11760407_x_at) / RFU CLDN22 /// WWC2 (11732394_at) / Fold change /veh CLDN22 /// WWC2 (11732394_at) / RFU HLA-DPB1 (11760878_x_at) / Fold change /veh HLA-DPB1 (11760878_x_at) / RFU SPINT1 (11716480_a_at) / Fold change /veh SPINT1 (11716480_a_at) / RFU GAP43 (11754022_s_at) / Fold change /veh GAP43 (11754022_s_at) / RFU A4GNT (11735810_at) / Fold change /veh A4GNT (11735810_at) / RFU PRB3 (11715151_x_at) / Fold change /veh PRB3 (11715151_x_at) / RFU TUBB4B (11761932_at) / Fold change /veh TUBB4B (11761932_at) / RFU CAPN14 (11732068_a_at) / Fold change /veh CAPN14 (11732068_a_at) / RFU TMCC2 (11721928_a_at) / Fold change /veh TMCC2 (11721928_a_at) / RFU IRGQ (11745062_a_at) / Fold change /veh IRGQ (11745062_a_at) / RFU FAM174B (11720279_a_at) / Fold change /veh FAM174B (11720279_a_at) / RFU TMPRSS4 (11748680_a_at) / Fold change /veh TMPRSS4 (11748680_a_at) / RFU FAM212B (11763350_a_at) / Fold change /veh FAM212B (11763350_a_at) / RFU PLEKHG5 (11743358_a_at) / Fold change /veh PLEKHG5 (11743358_a_at) / RFU ZSCAN30 (11745921_a_at) / Fold change /veh ZSCAN30 (11745921_a_at) / RFU CMKLR1 (11741424_a_at) / Fold change /veh CMKLR1 (11741424_a_at) / RFU LOC101060620 /// MAPK8IP1 (11723275_at) / Fold change /veh LOC101060620 /// MAPK8IP1 (11723275_at) / RFU SPTSSB (11747773_x_at) / Fold change /veh SPTSSB (11747773_x_at) / RFU PRSS12 (11739890_at) / Fold change /veh PRSS12 (11739890_at) / RFU BIN1 (11741810_x_at) / Fold change /veh BIN1 (11741810_x_at) / RFU WNT11 (11732464_a_at) / Fold change /veh WNT11 (11732464_a_at) / RFU C10orf10 (11716521_a_at) / Fold change /veh C10orf10 (11716521_a_at) / RFU C5orf56 (11738089_at) / Fold change /veh C5orf56 (11738089_at) / RFU CYB561 (11721691_x_at) / Fold change /veh CYB561 (11721691_x_at) / RFU ANKRD19P (11752326_a_at) / Fold change /veh ANKRD19P (11752326_a_at) / RFU OR2T12 /// OR2T33 /// OR2T8 (11738714_s_at) / Fold change /veh OR2T12 /// OR2T33 /// OR2T8 (11738714_s_at) / RFU VCAN (11748164_a_at) / Fold change /veh VCAN (11748164_a_at) / RFU JSRP1 (11732532_at) / Fold change /veh JSRP1 (11732532_at) / RFU KRTAP10-11 (11738290_x_at) / Fold change /veh KRTAP10-11 (11738290_x_at) / RFU MYO3A (11730013_a_at) / Fold change /veh MYO3A (11730013_a_at) / RFU EBF3 (11725865_a_at) / Fold change /veh EBF3 (11725865_a_at) / RFU CAMK2N1 (11719241_x_at) / Fold change /veh CAMK2N1 (11719241_x_at) / RFU C5orf56 (11738088_a_at) / Fold change /veh C5orf56 (11738088_a_at) / RFU OLFML3 (11715873_a_at) / Fold change /veh OLFML3 (11715873_a_at) / RFU LOC100653217 /// NTM (11731650_a_at) / Fold change /veh LOC100653217 /// NTM (11731650_a_at) / RFU MAPK11 (11762145_a_at) / Fold change /veh MAPK11 (11762145_a_at) / RFU FIZ1 (11724087_x_at) / Fold change /veh FIZ1 (11724087_x_at) / RFU OASL (11726364_x_at) / Fold change /veh OASL (11726364_x_at) / RFU SOX15 (11748057_x_at) / Fold change /veh SOX15 (11748057_x_at) / RFU CD79A (11719716_a_at) / Fold change /veh CD79A (11719716_a_at) / RFU HIST1H1D (11736915_at) / Fold change /veh HIST1H1D (11736915_at) / RFU CASKIN2 (11723855_a_at) / Fold change /veh CASKIN2 (11723855_a_at) / RFU LOC730098 (11760151_x_at) / Fold change /veh LOC730098 (11760151_x_at) / RFU OR4N2 (11742367_at) / Fold change /veh OR4N2 (11742367_at) / RFU PRRT2 (11749266_a_at) / Fold change /veh PRRT2 (11749266_a_at) / RFU SNX32 (11753110_a_at) / Fold change /veh SNX32 (11753110_a_at) / RFU CDHR5 (11726645_a_at) / Fold change /veh CDHR5 (11726645_a_at) / RFU RCAN1 (11760418_a_at) / Fold change /veh RCAN1 (11760418_a_at) / RFU FAM167A (11723789_a_at) / Fold change /veh FAM167A (11723789_a_at) / RFU FAM26E (11764081_at) / Fold change /veh FAM26E (11764081_at) / RFU ISYNA1 (11749810_s_at) / Fold change /veh ISYNA1 (11749810_s_at) / RFU ACY1 (11761880_at) / Fold change /veh ACY1 (11761880_at) / RFU 11764098_at / Fold change /veh 11764098_at / RFU SAMD14 (11745864_x_at) / Fold change /veh SAMD14 (11745864_x_at) / RFU NPB (11741838_a_at) / Fold change /veh NPB (11741838_a_at) / RFU TMPRSS6 (11731388_a_at) / Fold change /veh TMPRSS6 (11731388_a_at) / RFU KRTAP10-2 (11738614_at) / Fold change /veh KRTAP10-2 (11738614_at) / RFU ARHGAP8 /// PRR5-ARHGAP8 (11727945_x_at) / Fold change /veh ARHGAP8 /// PRR5-ARHGAP8 (11727945_x_at) / RFU KRTAP5-7 /// NADSYN1 (11734609_at) / Fold change /veh KRTAP5-7 /// NADSYN1 (11734609_at) / RFU RASL12 (11751679_a_at) / Fold change /veh RASL12 (11751679_a_at) / RFU CDKN2B (11736163_a_at) / Fold change /veh CDKN2B (11736163_a_at) / RFU PRF1 (11729649_at) / Fold change /veh PRF1 (11729649_at) / RFU, ZNF638 /// ZNF638-IT1 / Fold change vs veh, ZNF638 /// ZNF638-IT1 / RFU, PANK3 / Fold change vs veh, PANK3 / RFU, SH3YL1 / Fold change vs veh, SH3YL1 / RFU, ZEB2 / Fold change vs veh, ZEB2 / RFU, NRIP1 / Fold change vs veh, NRIP1 / RFU, PTTG1IP / Fold change vs veh, PTTG1IP / RFU, CAPN2 / Fold change vs veh, CAPN2 / RFU, MED14 / Fold change vs veh, MED14 / RFU, SNORA58 / Fold change vs veh, SNORA58 / RFU, C1orf63 / Fold change vs veh, C1orf63 / RFU, LRRFIP1 / Fold change vs veh, LRRFIP1 / RFU, NDUFAF7 / Fold change vs veh, NDUFAF7 / RFU, SLC12A2 / Fold change vs veh, SLC12A2 / RFU, IBTK / Fold change vs veh, IBTK / RFU, ESF1 / Fold change vs veh, ESF1 / Fold change vs veh, TMEM50B / RFU, TAOK1 / Fold change vs veh, TAOK1 / RFU, ACBD3 / Fold change vs veh, ACBD3 / RFU, TMA16 / Fold change vs veh, TMA16 / RFU, RWDD3 / Fold change vs veh, RWDD3 / RFU, BCAT1 / Fold change vs veh, BCAT1 / RFU, EDEM3 / Fold change vs veh, EDEM3 / RFU, TMEM33 / Fold change vs veh, TMEM33 / RFU, WDR75 / Fold change vs veh, WDR75 / RFU, AHCTF1 / Fold change vs veh, AHCTF1 / RFU, TFRC / Fold change vs veh, TFRC / RFU, ZDHHC17 / Fold change vs veh, ZDHHC17 / RFU, NOM1 / Fold change vs veh, NOM1 / RFU, ARL8B / Fold change vs veh, ARL8B / RFU, ZBTB11 / Fold change vs veh, ZBTB11 / RFU, TAMM41 / Fold change vs veh, TAMM41 / RFU, KIAA1704 /// LOC100996395 / Fold change vs veh, KIAA1704 /// LOC100996395 / RFU, ING1 / Fold change vs veh, ING1 / RFU, TRMT61B / Fold change vs veh, TRMT61B / RFU, FUBP3 / Fold change vs veh, FUBP3 / RFU, TP53 / Fold change vs veh, TP53 / RFU, TNKS2 / Fold change vs veh, TNKS2 / RFU, ZFP14 / Fold change vs veh, ZFP14 / RFU, ACTR2 / Fold change vs veh, ACTR2 / RFU, PPP3R1 / Fold change vs veh, PPP3R1 / RFU, PIK3R1 / Fold change vs veh, PIK3R1 / RFU, HNRNPA1 / Fold change vs veh, HNRNPA1 / RFU, RNF170 / Fold change vs veh, RNF170 / RFU, ZNF28 / Fold change vs veh, ZNF28 / RFU, RNGTT / Fold change vs veh, RNGTT / RFU, OGT / Fold change vs veh, OGT / RFU, BRD1 / Fold change vs veh, BRD1 / RFU, MARS / Fold change vs veh, MARS / RFU, ZNF655 / Fold change vs veh, ZNF655 / RFU, FAHD1 / Fold change vs veh, FAHD1 / RFU, BDP1 / Fold change vs veh, BDP1 / RFU, LRRCC1 / Fold change vs veh, LRRCC1 / RFU, ARID1A / Fold change vs veh, ARID1A / RFU, ZNF146 / Fold change vs veh, ZNF146 / RFU, ZNF330 / Fold change vs veh, ZNF330 / RFU, GPN3 / Fold change vs veh, GPN3 / RFU, C9orf123 / Fold change vs veh, C9orf123 / RFU, N4BP2L2 / Fold change vs veh, N4BP2L2 / RFU, ARFIP1 / Fold change vs veh, ARFIP1 / RFU, FAM179B / Fold change vs veh, FAM179B / RFU, BCL10 / Fold change vs veh, BCL10 / RFU, UHRF1BP1L / Fold change vs veh, UHRF1BP1L / RFU, BET1 / Fold change vs veh, BET1 / RFU, CNOT2 / Fold change vs veh, CNOT2 / RFU, ZNF268 / Fold change vs veh, ZNF268 / Fold change vs veh, ZNF507 / RFU, DGCR2 / Fold change vs veh, DGCR2 / RFU, WDSUB1 / Fold change vs veh, WDSUB1 / Fold change vs veh, HSP90B1 /// MIR3652 / RFU, ADSS / Fold change vs veh, ADSS / RFU, GK / Fold change vs veh, GK / RFU, ZNF148 / Fold change vs veh, ZNF148 / RFU, TAF9 / Fold change vs veh, TAF9 / RFU, SLC1A5 / Fold change vs veh, SLC1A5 / RFU, SLMO2 / Fold change vs veh, SLMO2 / RFU, ABCC4 / Fold change vs veh, ABCC4 / RFU, LOC101060439 /// RAP1B / Fold change vs veh, LOC101060439 /// RAP1B / RFU, RFX7 / Fold change vs veh, RFX7 / RFU, GTPBP10 / Fold change vs veh, GTPBP10 / RFU, CNEP1R1 / Fold change vs veh, CNEP1R1 / RFU, BIVM-ERCC5 /// ERCC5 / Fold change vs veh, BIVM-ERCC5 /// ERCC5 / RFU, ILF3 / Fold change vs veh, ILF3 / RFU 11762660_at / Fold change /veh 11762660_at / RFU VCAN (11757783_s_at) / Fold change /veh VCAN (11757783_s_at) / RFU DDX43 (11728927_at) / Fold change /veh DDX43 (11728927_at) / RFU KRT8 (11758188_x_at) / Fold change /veh KRT8 (11758188_x_at) / RFU NKD1 (11759106_at) / Fold change /veh NKD1 (11759106_at) / RFU SRD5A1 (11742802_a_at) / Fold change /veh SRD5A1 (11742802_a_at) / RFU TPSAB1 /// TPSB2 (11721975_s_at) / Fold change /veh TPSAB1 /// TPSB2 (11721975_s_at) / RFU GSTM3 (11746129_a_at) / Fold change /veh GSTM3 (11746129_a_at) / RFU IL23R (11737362_x_at) / Fold change /veh IL23R (11737362_x_at) / RFU TMEM51 (11727254_a_at) / Fold change /veh TMEM51 (11727254_a_at) / RFU PIWIL2 (11732686_x_at) / Fold change /veh PIWIL2 (11732686_x_at) / RFU ORM1 (11744905_x_at) / Fold change /veh ORM1 (11744905_x_at) / RFU CCDC152 (11743942_at) / Fold change /veh CCDC152 (11743942_at) / RFU ECM1 (11717891_a_at) / Fold change /veh ECM1 (11717891_a_at) / RFU IL23R (11748794_a_at) / Fold change /veh IL23R (11748794_a_at) / RFU TNFAIP8L3 (11732012_x_at) / Fold change /veh TNFAIP8L3 (11732012_x_at) / RFU MBOAT4 (11741988_at) / Fold change /veh MBOAT4 (11741988_at) / RFU 11764193_at / Fold change /veh 11764193_at / RFU TMEM53 (11763286_at) / Fold change /veh TMEM53 (11763286_at) / RFU MAGEB2 (11727129_at) / Fold change /veh MAGEB2 (11727129_at) / RFU TMEM200A (11744735_a_at) / Fold change /veh TMEM200A (11744735_a_at) / RFU CCDC152 (11751479_a_at) / Fold change /veh CCDC152 (11751479_a_at) / RFU FAM211A (11726209_a_at) / Fold change /veh FAM211A (11726209_a_at) / RFU RGS16 (11746705_a_at) / Fold change /veh RGS16 (11746705_a_at) / RFU VCAN (11755009_s_at) / Fold change /veh VCAN (11755009_s_at) / RFU RHOB (11743442_s_at) / Fold change /veh RHOB (11743442_s_at) / RFU RGS16 (11720943_a_at) / Fold change /veh RGS16 (11720943_a_at) / RFU RGS16 (11720944_at) / Fold change /veh RGS16 (11720944_at) / RFU, VPS4B / Fold change vs veh, VPS4B / RFU, CREB1 / Fold change vs veh, CREB1 / RFU, DNAJC13 / Fold change vs veh, DNAJC13 / RFU, GNAQ / Fold change vs veh, GNAQ / RFU, CDK5R1 / Fold change vs veh, CDK5R1 / RFU, ZRANB3 / Fold change vs veh, ZRANB3 / RFU, CUL4A / Fold change vs veh, CUL4A / RFU, CCNY / Fold change vs veh, CCNY / RFU, UFL1 / Fold change vs veh, UFL1 / RFU, COG3 / Fold change vs veh, COG3 / RFU, DIAPH2 / Fold change vs veh, DIAPH2 / RFU, SKA2 / Fold change vs veh, SKA2 / RFU, AFF3 / Fold change vs veh, AFF3 / RFU, LMF1 / Fold change vs veh, LMF1 / RFU, IPO11 / Fold change vs veh, IPO11 / RFU, DFFB / Fold change vs veh, DFFB / RFU, FOXP1 / Fold change vs veh, FOXP1 / RFU, CARD8 / Fold change vs veh, CARD8 / RFU, STRN3 / Fold change vs veh, STRN3 / RFU, ADK / Fold change vs veh, ADK / RFU, RASSF2 / Fold change vs veh, RASSF2 / RFU, WIPF1 / Fold change vs veh, WIPF1 / RFU, LARP1B / Fold change vs veh, LARP1B / RFU, RASA1 / Fold change vs veh, RASA1 / RFU, RB1 / Fold change vs veh, RB1 / RFU, PPFIA1 / Fold change vs veh, PPFIA1 / RFU, MAT2A / Fold change vs veh, MAT2A / RFU, CCT5 / Fold change vs veh, CCT5 / RFU, WDR92 / Fold change vs veh, WDR92 / RFU, CUX1 / Fold change vs veh, CUX1 / RFU, TTC7A / Fold change vs veh, TTC7A / RFU, TMEM135 / Fold change vs veh, TMEM135 / RFU, DEPTOR / Fold change vs veh, DEPTOR / RFU, CPM / Fold change vs veh, CPM / RFU, DNAJB6 / Fold change vs veh, DNAJB6 / RFU, CACNA2D3 / Fold change vs veh, CACNA2D3 / RFU, DTX4 / Fold change vs veh, DTX4 / RFU, TFCP2 / Fold change vs veh, TFCP2 / RFU, GMCL1 /// GMCL1P1 / Fold change vs veh, GMCL1 /// GMCL1P1 / RFU, AEBP2 / Fold change vs veh, AEBP2 / RFU, SNHG1 /// SNORD22 /// SNORD25 /// SNORD26 /// SNORD27 /// SNORD28 /// SNORD29 /// SNORD31 / Fold change vs veh, SNHG1 /// SNORD22 /// SNORD25 /// SNORD26 /// SNORD27 /// SNORD28 /// SNORD29 /// SNORD31 / Fold change (Aza/veh), C12orf56 (ProbeSet 11735607_a_at) / Fold change (ACY-1035/veh), C12orf56 (ProbeSet 11735607_a_at) / Fold change (Aza/veh), FGFR1OP (ProbeSet 11751329_s_at) / Fold change (ACY-1035/veh), FGFR1OP (ProbeSet 11751329_s_at) / Fold change (Aza/veh), VPS36 (ProbeSet 11739960_a_at) / Fold change (ACY-1035/veh), VPS36 (ProbeSet 11739960_a_at) / RFU SYPL1 (11715823_x_at) / Fold change /veh SYPL1 (11715823_x_at) / RFU IGFBP7 (11715501_s_at) / Fold change /veh IGFBP7 (11715501_s_at) / RFU REEP3 (11722064_at) / Fold change /veh REEP3 (11722064_at) / RFU IGLL1 (11728026_x_at) / Fold change /veh IGLL1 (11728026_x_at): dose or concentration left out as unconfirmed
Settings: MV-4-11 cells, 48 hours

`Nc1ccc(-c2cccs2)cc1NC(=O)c1ccc2c(c1)cc(C1CC1)n2CCN1CCOCC1` [ACY-1035] was tested, and the “RFU MYO3A (11730013_a_at)” value was 90.31 RFU.
